How the values were obtained:
[1] = tested on: Epidermal growth factor receptor (Homo sapiens), P00533 [L858R]
[2] = tested on: Epidermal growth factor receptor (Homo sapiens), P00533 [L858R,T790M]
Homo sapiens = species on record: Homo sapiens; assay: Selectivity ratio, ratio of Ki for human wild type EGFR to Ki for EGFR L858R mutant (unknown origin)
[3] = target: Epidermal growth factor receptor (Homo sapiens, UniProt P00533, L858R); assay: Binding affinity to EGFR L858R mutant (unknown origin) assessed as apparent inhibition constant in presence of ATP by TR-FRET assay; conditions: read-out: Ki(app)
[4] = tested on: Epidermal growth factor receptor (Homo sapiens), P00533 [L858R]; remark: listed apart in the source

Sequence of Epidermal growth factor receptor (Homo sapiens), P00533 [L858R] (P00533 whole entry L858R): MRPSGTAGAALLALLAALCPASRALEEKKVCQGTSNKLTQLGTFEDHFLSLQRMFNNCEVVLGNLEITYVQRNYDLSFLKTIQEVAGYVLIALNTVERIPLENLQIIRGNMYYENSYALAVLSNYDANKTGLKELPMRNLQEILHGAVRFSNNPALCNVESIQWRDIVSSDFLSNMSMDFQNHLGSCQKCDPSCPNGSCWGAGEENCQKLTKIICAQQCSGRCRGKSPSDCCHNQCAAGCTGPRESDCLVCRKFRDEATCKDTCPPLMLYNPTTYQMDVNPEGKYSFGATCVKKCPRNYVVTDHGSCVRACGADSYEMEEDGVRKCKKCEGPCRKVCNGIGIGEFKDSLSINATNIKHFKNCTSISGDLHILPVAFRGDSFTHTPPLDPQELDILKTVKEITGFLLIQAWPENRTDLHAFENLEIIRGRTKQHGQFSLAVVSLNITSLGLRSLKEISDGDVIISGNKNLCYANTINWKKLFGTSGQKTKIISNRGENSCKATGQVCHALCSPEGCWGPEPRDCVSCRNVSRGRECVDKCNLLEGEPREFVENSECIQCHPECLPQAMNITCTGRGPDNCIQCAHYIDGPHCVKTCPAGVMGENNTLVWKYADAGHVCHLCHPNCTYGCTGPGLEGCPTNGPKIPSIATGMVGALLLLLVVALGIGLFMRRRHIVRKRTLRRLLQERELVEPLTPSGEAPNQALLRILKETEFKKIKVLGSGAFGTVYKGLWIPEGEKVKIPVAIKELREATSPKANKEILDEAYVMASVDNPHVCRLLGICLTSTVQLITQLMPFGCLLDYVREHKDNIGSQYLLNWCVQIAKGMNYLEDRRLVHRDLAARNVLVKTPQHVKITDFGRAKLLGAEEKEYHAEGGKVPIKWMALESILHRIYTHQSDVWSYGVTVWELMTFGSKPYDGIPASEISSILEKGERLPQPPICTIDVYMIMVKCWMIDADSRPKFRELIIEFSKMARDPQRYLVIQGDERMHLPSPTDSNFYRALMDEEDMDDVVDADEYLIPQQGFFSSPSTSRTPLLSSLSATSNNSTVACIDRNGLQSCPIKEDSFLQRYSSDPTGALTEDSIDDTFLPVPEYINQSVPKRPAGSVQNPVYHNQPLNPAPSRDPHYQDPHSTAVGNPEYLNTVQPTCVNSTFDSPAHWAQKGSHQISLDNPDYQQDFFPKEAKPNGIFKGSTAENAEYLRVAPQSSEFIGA
Sequence of Epidermal growth factor receptor (Homo sapiens), P00533 [L858R,T790M] (P00533 whole entry T790M/L858R, looked up): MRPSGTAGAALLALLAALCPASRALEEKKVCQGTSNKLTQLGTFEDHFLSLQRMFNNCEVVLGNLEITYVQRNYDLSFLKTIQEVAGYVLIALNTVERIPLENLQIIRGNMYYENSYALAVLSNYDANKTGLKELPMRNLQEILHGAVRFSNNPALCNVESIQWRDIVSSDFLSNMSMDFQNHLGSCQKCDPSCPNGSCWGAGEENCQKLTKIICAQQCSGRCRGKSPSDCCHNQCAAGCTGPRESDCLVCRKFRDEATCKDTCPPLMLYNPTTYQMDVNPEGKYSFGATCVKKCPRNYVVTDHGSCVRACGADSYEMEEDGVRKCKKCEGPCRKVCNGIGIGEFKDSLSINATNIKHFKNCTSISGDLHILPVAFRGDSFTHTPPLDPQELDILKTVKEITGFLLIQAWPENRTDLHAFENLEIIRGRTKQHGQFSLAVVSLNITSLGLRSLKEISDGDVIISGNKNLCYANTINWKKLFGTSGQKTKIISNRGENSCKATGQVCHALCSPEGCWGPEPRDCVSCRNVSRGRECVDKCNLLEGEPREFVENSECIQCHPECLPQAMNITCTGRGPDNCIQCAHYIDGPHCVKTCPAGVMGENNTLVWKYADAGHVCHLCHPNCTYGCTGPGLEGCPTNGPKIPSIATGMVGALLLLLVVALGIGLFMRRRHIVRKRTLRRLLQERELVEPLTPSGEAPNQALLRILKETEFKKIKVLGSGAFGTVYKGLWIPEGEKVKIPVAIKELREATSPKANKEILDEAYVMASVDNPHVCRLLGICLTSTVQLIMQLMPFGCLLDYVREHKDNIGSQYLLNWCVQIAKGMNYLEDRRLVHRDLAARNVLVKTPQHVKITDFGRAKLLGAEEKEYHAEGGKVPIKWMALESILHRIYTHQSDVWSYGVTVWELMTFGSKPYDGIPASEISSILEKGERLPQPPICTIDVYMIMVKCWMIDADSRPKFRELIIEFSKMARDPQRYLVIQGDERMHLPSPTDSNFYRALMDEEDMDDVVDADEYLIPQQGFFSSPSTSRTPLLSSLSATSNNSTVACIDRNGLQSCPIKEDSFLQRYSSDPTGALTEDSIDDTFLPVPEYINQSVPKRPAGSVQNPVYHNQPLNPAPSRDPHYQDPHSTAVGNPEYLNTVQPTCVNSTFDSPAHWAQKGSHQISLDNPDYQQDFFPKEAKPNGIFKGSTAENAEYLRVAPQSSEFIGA
Sequence of Epidermal growth factor receptor (P00533 25-1210 L858R limits assumed): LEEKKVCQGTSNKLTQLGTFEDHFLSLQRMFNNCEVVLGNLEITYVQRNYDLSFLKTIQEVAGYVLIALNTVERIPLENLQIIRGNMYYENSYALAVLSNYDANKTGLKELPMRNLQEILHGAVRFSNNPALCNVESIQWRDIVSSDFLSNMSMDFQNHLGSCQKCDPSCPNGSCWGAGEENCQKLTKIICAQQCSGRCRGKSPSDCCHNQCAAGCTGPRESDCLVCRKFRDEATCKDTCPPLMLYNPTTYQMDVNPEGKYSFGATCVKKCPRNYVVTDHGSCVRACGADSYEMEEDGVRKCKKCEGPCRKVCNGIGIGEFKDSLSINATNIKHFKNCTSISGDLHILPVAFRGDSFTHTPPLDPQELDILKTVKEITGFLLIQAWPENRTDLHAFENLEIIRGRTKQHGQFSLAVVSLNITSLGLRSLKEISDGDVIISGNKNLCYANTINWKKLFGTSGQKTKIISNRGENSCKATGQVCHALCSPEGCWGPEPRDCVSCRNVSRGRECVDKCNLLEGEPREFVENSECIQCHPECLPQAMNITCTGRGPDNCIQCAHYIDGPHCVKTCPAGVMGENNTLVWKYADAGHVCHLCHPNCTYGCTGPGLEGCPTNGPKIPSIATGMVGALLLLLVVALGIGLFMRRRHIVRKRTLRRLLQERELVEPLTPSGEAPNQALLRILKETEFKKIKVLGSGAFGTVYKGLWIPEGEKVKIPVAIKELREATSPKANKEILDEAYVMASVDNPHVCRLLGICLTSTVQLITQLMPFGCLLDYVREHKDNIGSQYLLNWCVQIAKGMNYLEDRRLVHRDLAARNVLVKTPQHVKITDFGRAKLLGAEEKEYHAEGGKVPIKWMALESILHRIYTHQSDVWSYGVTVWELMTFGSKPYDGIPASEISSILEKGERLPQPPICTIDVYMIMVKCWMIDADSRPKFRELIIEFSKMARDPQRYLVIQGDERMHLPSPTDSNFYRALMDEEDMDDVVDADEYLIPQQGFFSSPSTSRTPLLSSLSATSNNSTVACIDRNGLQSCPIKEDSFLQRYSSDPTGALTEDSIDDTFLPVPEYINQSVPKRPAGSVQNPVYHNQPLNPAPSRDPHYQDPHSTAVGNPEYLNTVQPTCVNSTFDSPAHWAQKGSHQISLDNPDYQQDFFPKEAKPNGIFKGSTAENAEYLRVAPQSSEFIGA

C=CC(=O)Nc1cc(Nc2nccc(-n3cc(CN(C)C)c(-c4ccccc4)n3)n2)c(OC)cc1N1CCOCC1 [LAZERTINIB]
Kinact [1]: 5.88 10^-3/s | Kinact [2]: 3.92 10^-3/s | Ratio Ki (Homo sapiens): 0.358 | Ki [3]: 4.68 nM | Kinact [4]: 0.00971 s⁻¹
